{"source": "patent US9938240B2", "about": "“Fluorinated derivatives of 3-hydroxypyridin-4-ones” (Apotex Technologies Inc., priority 2009, dated 2018)", "key": {"[1]": {"system": "SH-SY5Y human neuroblastoma cells", "conditions": "for CC2 (cytotoxic concentration): H2O2-treated cells, viability below 80%; for CC1 (cytotoxic concentration): absence of H2O2, viability below 80%", "summary_of_the_method": "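SH-SY5Y cells were treated with a range of compound concentrations, with or without 50 μM H2O2, in serum-free medium for 16–22 h. Viability was measured by MTT and expressed relative to cells receiving neither H2O2 nor compound. Runs without H2O2 assessed cytotoxicity.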"}, "[2]": {"system": "human neuroblastoma MC-65 cells", "test": "cells", "conditions": "for EC100 / minimal effective concentration: Homo sapiens, MC65, 48 h; for EC100: read-out: EC100 (maximum effective concentration); for minimal effective concentration: read-out: TH (threshold protective concentration); for CC2 (cytotoxic concentration): MC-65, cultured without tetracycline; for CC2 (cytotoxic concentration) / CC1 (cytotoxic concentration): viability below 80%; for CC1 (cytotoxic concentration): MC-65, presence of TET", "summary_of_the_method": "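MC-65 cells (conditional Aβ fusion-protein expression, TET-repressed) were washed free of TET and FBS, then exposed to compound ~48 h in serum-free medium without or with 1 μg/mL TET.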"}, "[3]": {"test": "Pharmacokinetics following oral administration to rats", "type": "in vivo, male Sprague Dawley rats", "conditions": "rat, oral 50 mg/kg in 0.5% CMC; for Brain AUC_D_obs / Brain Cmax_D / Plasma AUC_D_obs / Plasma Cmax_D: dose-normalized", "procedure": "Adult male Sprague Dawley rats (275-325 g, Charles River Laboratories, Saint Constant, Quebec) were orally dosed with 50 mg/kg of test compound (Apo7323, Apo7433, Apo7435 or Apo7448) suspended in 0.5% carboxymethylcellulose (CMC) in water. For each test compound, samples were obtained from the plasma and brain of three animals per time point, at 0 (dosed with 0.5% CMC), 0.25, 0.5, 1, 2, 4, 8 and 12 h following administration. The concentration of the compound in rat plasma and brain samples was determined by HPLC-UV. Pharmacokinetic parameters were computed using the PKPlus Module in GastroPlus® ver. 8.0 (Simulations Plus Inc., Lancaster, Calif.). Calculation method: linear trapezoidal with linear interpolation."}, "[4]": {"conditions": "cited from earlier work"}, "[5]": {"test": "Cyclic voltammetry of iron complexes", "type": "physicochemical", "conditions": "for E1/2 vs. Ag/AgCl / E1/2 vs. NHE / ΔE / Eox / Ered: 0.1M aqueous NaCl; for E1/2 vs. Ag/AgCl / E1/2 vs. NHE / ΔE: pH 7.4; for Eox / Ered: pH 7.4, vs. Ag/AgCl; for redox potential E1/2 (vs. NHE): pH 7.4, as quoted"}, "[6]": {"test": "Benzoic acid hydroxylation assay", "conditions": "benzoic acid 1 mM, H2O2 6 mM, FeCl3 30 μM, chelator 30 μM, pH 7.4, up to 81 h", "source_text": "Benzoic acid is a hydroxyl radical scavenger and reacts with hydroxyl radical to give 2-hydroxy, 3-hydroxy and 4-hydroxybenzoic acids. The benzoic acid hydroxylation assay is a chemical assay designed to detect damage caused by hydroxyl radical (Dean and Nicholson, Free Radical Research 1994, vol 20, 83-101). For example, deferiprone suppresses the formation of hydroxybenzoic acids in the presence of iron salts and hydrogen peroxide, while EDTA and iron salts allow such hydroxylation reactions to take place.\nThis screening assay involves the use of iron salt, benzoic acid, hydrogen peroxide and the chelator and measures the ability of the chelator to inhibit the formation of hydroxybenzoate as an indicator to prevent hydroxyl radical formation in living system.\nBriefly, this procedure is based on the ability of hydroxyl radicals to hydroxylate benzoate to give 2-, 3- and 4-hydroxylated benzoic acid products. Benzoic acid (1 mM) is incubated over time up to 81 h at room temperature in the dark in 10 mM phosphate buffer (pH 7.4) with 6 mM hydrogen peroxide, ferric chloride (30 μM) and the Fe chelator (30 μM). HPLC is the method of choice used to monitor and quantify the amount of 2-, 3- and 4-hydroxylated products formed over time in the reaction mixture, and can be verified against authentic benzoic acid and its hydroxylated products via their respective retention times and areas under curve. In addition, several controls are used: (i) a control without added Fe stock solution and Fe chelator; (ii) a control without added Fe chelator; (iii) EDTA as positive control; and (iv) deferiprone as negative control. The Fe-EDTA system is a hydroxyl radical generator and is known to promote hydroxylation of benzoic acid."}, "[7]": {"test": "Stoichiometry of Fe-complexes by Job's method", "type": "physicochemical", "conditions": "0.1 M MOPS pH 7.4, absorbance at 458 nm", "procedure": "In a typical experiment Fe-Apo7053 complex solutions were prepared by mixing a stock solution of Fe^2+ (atomic absorption standard, 989 μg/mL in 1 wt % HCl, Aldrich) and a stock solution of Apo7053 (7.88×10^−3 M in 0.1 M MOPS, pH 7.4). Twelve sample solutions were prepared. While the sum of the total iron concentration ([iron]total) and the total ligand concentration ([L]total) in each of the 12 sample solutions were kept constant (8.00×10^−4 M), the molar fraction of the ligand, α (α=[L]total/([L]total+[iron]total)), for the 12 sample solutions were different, and were prepared as 0.0, 0.1, 0.2, 0.3, 0.4, 0.5, 0.6, 0.7, 0.75, 0.8, 0.9 and 1.0, respectively. The total volume for each of the 12 sample solutions was 5 mL, using MOPS (0.1 M, pH 7.4) as the solvent. The pH of the 12 solutions were adjusted to pH 7.4 with NaOH. The sample solutions were vortexed at rt for 2.5 h, and then stayed at rt overnight. The sample solutions were centrifuged at 4000 rpm for 15 min. The UV-Vis spectrum was recorded at 22° C. for each of the 12 solutions.\nA Job's plot was created with the absorbance at 458 nm as the y-axis and α as the x-axis. A maximum absorbance was found at α=0.75, which corresponds to an iron:ligand ratio of 1:3 in the complexes."}}, "note": "Like-named read-outs stand apart in the source and are kept apart here."}
{"compound": "Cc1[nH]cc(C(N2CCOCC2)C(F)(F)F)c(=O)c1O", "note": "(centres unmarked) [Apo7433, 3-hydroxy-2-methyl-5-(2,2,2-trifluoro-1-morpholinoethyl)pyridin-4(1H)-one]", "values": [{"measurement": "CC2 (cytotoxic concentration)", "setting": "[1]", "result": 320, "unit": "µM"}, {"measurement": "CC1 (cytotoxic concentration)", "setting": "[1]", "result": 320, "unit": "µM"}, {"measurement": "EC100", "setting": "[2]", "result": 10, "unit": "µM"}, {"measurement": "minimal effective concentration", "setting": "[2]", "result": 1, "unit": "µM"}, {"measurement": "CC2 (cytotoxic concentration)", "setting": "[2]", "result": 40, "unit": "µM"}, {"measurement": "CC1 (cytotoxic concentration)", "setting": "[2]", "result": 40, "unit": "µM"}, {"measurement": "CL", "setting": "[3]", "result": 62.7, "unit": "mL/min/kg"}, {"measurement": "Brain AUC_D_obs", "setting": "[3]", "result": 0.039, "unit": "kg·µg·h/mL/mg"}, {"measurement": "Brain Cmax_D", "setting": "[3]", "result": 0.400, "unit": "kg·µg/mL/mg"}, {"measurement": "Plasma AUC_D_obs", "setting": "[3]", "result": 0.860, "unit": "kg·µg·h/mL/mg"}, {"measurement": "Plasma Cmax_D", "setting": "[3]", "result": 0.396, "unit": "kg·µg/mL/mg"}]}
{"compound": "Fe-transferrin: iron bound to the blood protein transferrin", "values": [{"measurement": "E1/2 vs. Ag/AgCl", "setting": "[4]; background value", "result": "−720", "unit": "my"}, {"measurement": "E1/2 vs. NHE", "setting": "[4]; background value", "result": "−500", "unit": "my"}]}
{"compound": "Cn1ccc(=O)c(O)c1C(N1CCOCC1)C(F)(F)F", "note": "(centres unmarked) [Apo7448, 3-hydroxy-1-methyl-2-(2,2,2-trifluoro-1-morpholinoethyl)pyridin-4(1H)-one]", "values": [{"measurement": "CC2 (cytotoxic concentration)", "setting": "[1]", "result": 320, "unit": "µM"}, {"measurement": "CC1 (cytotoxic concentration)", "setting": "[1]", "result": 80, "unit": "µM"}, {"measurement": "EC100", "setting": "[2]", "result": 20, "unit": "µM"}, {"measurement": "minimal effective concentration", "setting": "[2]", "result": 1, "unit": "µM"}, {"measurement": "CC2 (cytotoxic concentration)", "setting": "[2]", "result": 40, "unit": "µM"}, {"measurement": "CC1 (cytotoxic concentration)", "setting": "[2]", "result": 40, "unit": "µM"}, {"measurement": "CL", "setting": "[3]", "result": 52, "unit": "mL/min/kg"}, {"measurement": "Brain AUC_D_obs", "setting": "[3]", "result": 0.486, "unit": "kg·µg·h/mL/mg"}, {"measurement": "Brain Cmax_D", "setting": "[3]", "result": 0.178, "unit": "kg·µg/mL/mg"}, {"measurement": "Plasma AUC_D_obs", "setting": "[3]", "result": 1.07, "unit": "kg·µg·h/mL/mg"}, {"measurement": "Plasma Cmax_D", "setting": "[3]", "result": 0.334, "unit": "kg·µg/mL/mg"}]}
{"compound": "CC(=O)N([O-])CCCCCNC(=O)CCC(=O)N([O-])CCCCCNC(=O)CCC(=O)N([O-])CCCCCN.[Fe+3]", "note": "[FeDFO]", "values": [{"measurement": "E1/2 vs. Ag/AgCl", "setting": "[5]", "result": "−698", "unit": "mV"}, {"measurement": "E1/2 vs. NHE", "setting": "[5]", "result": "−478", "unit": "mV"}, {"measurement": "ΔE", "setting": "[5]", "result": 112, "unit": "mV"}, {"measurement": "Eox", "setting": "[5]", "result": "−642", "unit": "mV"}, {"measurement": "Ered", "setting": "[5]", "result": "−754", "unit": "mV"}, {"measurement": "redox potential E1/2 (vs. NHE)", "setting": "[5]", "result": "−480", "unit": "my"}, {"measurement": "E1/2 literature value", "setting": "[4]; versus Ag/AgCl, Crumbliss et al. 2003", "result": "−688", "unit": "mV"}]}
{"compound": "CN(C)c1c(O)c(=O)cc(CC(F)(F)F)n1C", "note": "[Apo7077, 2-(dimethylamino)-3-hydroxy-1-methyl-6-(2,2,2-trifluoroethyl)pyridin-4(1H)-one]", "values": [{"measurement": "hydroxylation of benzoic acid by Fe chelate", "setting": "[6]", "result": "do not promote the hydroxylation of benzoic acid"}, {"measurement": "EC100", "setting": "[2]", "result": 10, "unit": "µM"}, {"measurement": "minimal effective concentration", "setting": "[2]", "result": 1, "unit": "µM"}, {"measurement": "CC2 (cytotoxic concentration)", "setting": "[2]", "result": 80, "unit": "µM"}, {"measurement": "CC1 (cytotoxic concentration)", "setting": "[2]", "result": 80, "unit": "µM"}]}
{"compound": "Cc1c([O-])c(=O)ccn1C.Cc1c([O-])c(=O)ccn1C.Cc1c([O-])c(=O)ccn1C.[Fe+3]", "note": "[Fe(L1)3]", "values": [{"measurement": "E1/2 vs. Ag/AgCl", "setting": "[5]", "result": "−797", "unit": "mV"}, {"measurement": "E1/2 vs. NHE", "setting": "[5]", "result": "−577", "unit": "mV"}, {"measurement": "ΔE", "setting": "[5]", "result": 89, "unit": "mV"}, {"measurement": "Eox", "setting": "[5]", "result": "−752", "unit": "mV"}, {"measurement": "Ered", "setting": "[5]", "result": "−841", "unit": "mV"}, {"measurement": "redox potential E1/2 (vs. NHE)", "setting": "[5]", "result": "−628", "unit": "my"}]}
{"compound": "Cc1c(O)c(=O)c(C(N(C)C)C(F)(F)F)cn1C", "note": "(centres unmarked) [Apo7053, 5-[1-(dimethylamino)-2,2,2-trifluoroethyl]-3-hydroxy-1,2-dimethylpyridin-4(1H)-one]", "values": [{"measurement": "molar fraction of ligand α at maximum absorbance (Job's plot)", "setting": "[7]", "result": 0.75}, {"measurement": "hydroxylation of benzoic acid by Fe chelate", "setting": "[6]", "result": "do not promote the hydroxylation of benzoic acid"}, {"measurement": "CC2 (cytotoxic concentration)", "setting": "[1]", "result": ">640", "unit": "µM"}, {"measurement": "CC1 (cytotoxic concentration)", "setting": "[1]", "result": 2.2, "unit": "µM"}, {"measurement": "EC100", "setting": "[2]", "result": 10, "unit": "µM"}, {"measurement": "minimal effective concentration", "setting": "[2]", "result": 0.1, "unit": "µM"}, {"measurement": "CC2 (cytotoxic concentration)", "setting": "[2]", "result": 20, "unit": "µM"}, {"measurement": "CC1 (cytotoxic concentration)", "setting": "[2]", "result": 40, "unit": "µM"}]}
